Measured values as given in patent publication US10633419B2, “Immunomodulators” (BRISTOL-MYERS SQUIBB COMPANY, priority 2014, dated 2020).
Starred links: 1 amine or outer side, 2 acyl side, 3 side chain; linkers in the order of their positions; H or OH if unused. Positions of bridges follow the written chain, without caps; N, C: chain ends. Non-standard residues stand in square brackets, D forms with d. Residues, ends and D or L forms follow the SMILES beside them. Groups on a side chain read outwards from the residue. *: point of attachment. Trp(1-CH2COOH) = N[C@@H](Cc1cn(CC(=O)O)c2ccccc12)C(=O)O; X14 = O=C(O)CCCCCCCCCCNC(=O)CCC(=O)NCCCOCCOCCOCCCN*; C18 diacid = O=C(O)CCCCCCCCCCCCCCCCC(=O)*; γGlu = O=C(O)[C@H](CCC(=O)[*:2])N[*:1]; d(cisHyp) = O=C(O)[C@H]1C[C@@H](O)CN1; PEG6 = NCCOCCOCCOCCOCCOCCOCCC(=O)O; Hyp = O=C(O)[C@@H]1C[C@@H](O)CN1; NMeNle = CCCC[C@H](NC)C(=O)O; Pip = O=C(O)[C@@H]1CCCCN1; NMeA = CN[C@@H](C)C(=O)O; Aun = NCCCCCCCCCCC(=O)O; Dab = NCC[C@H](N)C(=O)O; Dap = NC[C@H](N)C(=O)O

biological target: T1, PD-L1 (Homo sapiens, UniProt Q9NZQ7); assay: PD-1/PD-L1 Homogenous Time-Resolved Fluorescence (HTRF) binding assay (PD-1-Ig/PD-L1-His); conditions: inhibition of PD-1-Ig binding to PD-L1-TVMV-His; value given as range class; read-out: HTRF IC50
T1 construct: hPDL1(19-239)-TVMV-His; made in house; host or cells: HEK293T
T1 sequence (Q9NZQ7 with tags, fused parts or gaps): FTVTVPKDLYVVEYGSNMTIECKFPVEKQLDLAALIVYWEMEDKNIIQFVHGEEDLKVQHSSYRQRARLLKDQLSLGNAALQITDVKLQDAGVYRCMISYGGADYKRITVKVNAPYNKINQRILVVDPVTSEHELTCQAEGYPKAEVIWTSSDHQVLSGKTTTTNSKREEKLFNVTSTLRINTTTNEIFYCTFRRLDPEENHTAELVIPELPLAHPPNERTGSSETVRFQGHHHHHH
Procedure, shortened: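 Inhibitors pre-incubated 15 min with PD-L1-His (10 nM final), then PD-1-Ig (20 nM final) added for 15 min in dPBS/0.1% BSA/0.05% Tween-20. Eu-cryptate anti-Ig (1 nM) and APC anti-His (20 nM) added, 30 min equilibration, 665/620 nm HTRF ratio read.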

**Q.** Which IC50 does the source give for `CCCC[C@H]1C(=O)N(C)[C@@H](CCCC)C(=O)N[C@@H](CC(C)C)C(=O)N[C@H](C(=O)NCC(=O)N[C@@H](CC(=O)O)C(=O)NCC(=O)NCCCCCCCCCCC(=O)O)CSCC(=O)N[C@@H](Cc2ccc(O)cc2)C(=O)N(C)[C@@H](C)C(=O)N[C@@H](CC(N)=O)C(=O)N2CCC[C@H]2C(=O)N[C@@H](CN)C(=O)N[C@@H](CC(C)C)C(=O)N2C[C@H](O)C[C@H]2C(=O)N[C@@H](Cc2c[nH]c3ccccc23)C(=O)N[C@@H](CCN)C(=O)N[C@@H](Cc2cn(CC(=O)O)c3ccccc23)C(=O)N1C` [Example 11099] ({CH2CO}-Y[NMeA]NP[Dap]L[Hyp]W[Dab][Trp(1-CH2COOH)][NMeNle][NMeNle]LCGDG[Aun]-OH; thioether N-14) here?
**A.** 0.0003 to 0.0099 µM

**Q.** How did the IC50 turn out when `CCCC[C@H]1C(=O)N(C)[C@@H](CCCC)C(=O)N[C@@H](CCC(=O)O)C(=O)N[C@H](C(=O)NCC(=O)N[C@@H](Cc2cn(CC[C@H](NC(=O)CCCCCCCCCCCCCCC(=O)O)C(=O)O)nn2)C(=O)N[C@@H](CC(=O)O)C(N)=O)CSCC(=O)N[C@@H](Cc2ccc(O)cc2)C(=O)N(C)[C@@H](C)C(=O)N[C@@H](CC(=O)O)C(=O)N2CCC[C@H]2C(=O)N[C@@H](Cc2c[nH]cn2)C(=O)N[C@@H](CCCCN)C(=O)N2C[C@H](O)C[C@H]2C(=O)N[C@@H](Cc2c[nH]c3ccccc23)C(=O)N[C@@H](CCCCN)C(=O)N[C@@H](Cc2c[nH]c3ccccc23)C(=O)N1C` [Example 14065] was run?
**A.** 0.01 to 0.099 µM

**Q.** With `CCCC[C@H]1C(=O)N(C)[C@@H](CCCC)C(=O)N[C@@H](CC(C)C)C(=O)N[C@H](C(=O)NCCCOCCOCCOCCCNC(=O)CCC(=O)NCCCCCCCCCCC(=O)O)CSCC(=O)N[C@@H](Cc2ccc(O)cc2)C(=O)N(C)[C@@H](C)C(=O)N[C@@H](CC(N)=O)C(=O)N2CCC[C@H]2C(=O)N[C@@H](Cc2cnc[nH]2)C(=O)N[C@@H](CCC(=O)O)C(=O)N2C[C@H](O)C[C@H]2C(=O)N[C@@H](Cc2c[nH]c3ccccc23)C(=O)N[C@@H](CO)C(=O)N[C@@H](Cc2c[nH]c3ccccc23)C(=O)N1C` [Example 11073] ({CH2CO}-Y[NMeA]NPHE[Hyp]WSW[NMeNle][NMeNle]LC-X14; thioether N-14) as the compound, how does the IC50 read?
**A.** 0.01 to 0.099 µM

**Q.** How did the IC50 turn out when `CCCC[C@H]1C(=O)N(C)[C@@H](CCCC)C(=O)N[C@@H](CC(C)C)C(=O)N[C@H](C(=O)NCCOCCOCCOCCOCCOCCOCCC(=O)NCCCCCCCCCCC(=O)O)CSCC(=O)N[C@@H](Cc2ccc(O)cc2)C(=O)N(C)[C@@H](C)C(=O)N[C@@H](CC(N)=O)C(=O)N2CCC[C@H]2C(=O)N[C@@H](CO)C(=O)N[C@@H](CCC(N)=O)C(=O)N2C[C@H](O)C[C@@H]2C(=O)N[C@@H](Cc2c[nH]c3ccccc23)C(=O)N[C@@H](CO)C(=O)N[C@@H](Cc2cn(CC(=O)O)c3ccccc23)C(=O)N1C` [Example 11060] ({CH2CO}-Y[NMeA]NPSQ[d(cisHyp)]WS[Trp(1-CH2COOH)][NMeNle][NMeNle]LC[PEG6][Aun]-OH; thioether N-14) was run?
**A.** 0.1 to 1.6 µM

**Q.** For `CCCC[C@H]1C(=O)N(C)[C@@H](CCCC)C(=O)N[C@@H](CC(C)C)C(=O)N[C@H](C(=O)NCC(=O)N[C@@H](CCNC(=O)CC[C@H](NC(=O)CCCCCCCCCCCCCCCCC(=O)O)C(=O)O)C(=O)O)CSCC(=O)N[C@@H](Cc2ccc(OC)cc2)C(=O)N2CCCC[C@H]2C(=O)N[C@@H](CC(N)=O)C(=O)N2CCC[C@H]2C(=O)N[C@@H](Cc2c[nH]cn2)C(=O)N[C@@H](CC(C)C)C(=O)N2C[C@H](O)C[C@H]2C(=O)N[C@@H](Cc2c[nH]c3ccccc23)C(=O)N[C@@H](CCN)C(=O)N[C@@H](Cc2cn(CC(=O)O)c3ccccc23)C(=O)N1C` [Example 13151] ({CH2CO}-Y(Me)[Pip]NPHL[Hyp]W[Dab][Trp(1-CH2COOH)][NMeNle][NMeNle]LCG[Dab]([γGlu-C18 diacid])-OH; thioether N-14), which IC50 is on record?
**A.** 0.01 to 0.099 µM
